Source: patent publication US9273033B2, “Substituted pyridone derivatives as PDE10 inhibitors” (Merck Sharp & Dohme Corp., priority 2012, dated 2016)

Target: human PDE10A2 (Homo sapiens (Human), UniProt Q9Y233)
Experiment: PDE10 fluorescence polarization (IMAP FP) inhibition assay
Format: biochemical
Details: human PDE10A2, FAM-labeled cAMP substrate, read-out: PDE10A Ki
Method in brief: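 Cytoplasmic lysate of AD293 cells transiently expressing human PDE10A2 (diluted to ~20% substrate conversion) incubated 30 min at room temperature with 50 nM FAM-cAMP in Tris pH 7.2 buffer with MgCl2, DTT. Activity read by IMAP fluorescence polarization. 0% inhibition set with 1% DMSO, 100% with reference PDE10 inhibitor.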

human PDE10A2, sequence (Q9Y233 267-1055): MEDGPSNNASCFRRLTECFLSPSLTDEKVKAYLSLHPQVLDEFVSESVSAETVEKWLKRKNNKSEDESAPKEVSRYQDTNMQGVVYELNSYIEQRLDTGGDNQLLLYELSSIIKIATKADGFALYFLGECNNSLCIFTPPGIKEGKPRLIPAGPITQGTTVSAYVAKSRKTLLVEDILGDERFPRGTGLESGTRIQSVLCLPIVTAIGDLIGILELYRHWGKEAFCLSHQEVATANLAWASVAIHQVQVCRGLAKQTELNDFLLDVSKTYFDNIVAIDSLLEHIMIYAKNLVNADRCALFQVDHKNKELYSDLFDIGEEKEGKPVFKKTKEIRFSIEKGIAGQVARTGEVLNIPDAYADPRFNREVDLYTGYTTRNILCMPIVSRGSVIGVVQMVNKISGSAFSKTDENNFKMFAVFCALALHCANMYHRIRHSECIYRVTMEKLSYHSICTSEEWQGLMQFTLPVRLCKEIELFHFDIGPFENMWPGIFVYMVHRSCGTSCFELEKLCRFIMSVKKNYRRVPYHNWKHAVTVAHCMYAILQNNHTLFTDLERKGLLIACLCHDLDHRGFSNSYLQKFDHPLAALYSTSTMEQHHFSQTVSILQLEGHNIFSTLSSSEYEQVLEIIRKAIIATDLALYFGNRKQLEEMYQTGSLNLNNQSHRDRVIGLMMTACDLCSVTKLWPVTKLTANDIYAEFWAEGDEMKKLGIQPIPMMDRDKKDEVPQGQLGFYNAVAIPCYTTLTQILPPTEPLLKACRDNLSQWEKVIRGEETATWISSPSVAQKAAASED

| Compound | Ki [nM] |
| --- | --- |
| CCn1ccc(-c2cnc(C)nc2OC[C@H]2C[C@@H]2c2ccc3ccccc3n2)cc1=O [Example 96, 1-ethyl-4-(2-methyl-4-(((lS,2S)-2-(quinolin-2-yl)cyclopropyl)methoxy)pyrimidin-5-yl)pyridin-2(1H)-one] | 0.021 |
| Cc1ncc(-c2ccn(C)c(=O)c2)c(OC[C@@H]2C[C@H]2c2ccc(Cl)cn2)n1 [Example 103, 4-(4-(((1R,2R)-2-(5-chloropyridin-2-yl)cyclopropyl)methoxy)-2-methylpyrimidin-5-yl)-1-methylpyridin-2(1H)-one] | 100 |
| Cc1ccc([C@H]2C[C@@H]2COc2nc(C)ncc2-c2cc(=O)n(C)cc2Cl)nc1 [Example 99, 5-chloro-1-methyl-4-(2-methyl-4-(((1S,2S)-2-(5-methylpyridin-2-yl)cyclopropyl)methoxy)pyrimidin-5-yl)pyridin-2(1H)-one] | 1.11 |

The next lines start with the values.

| Ki [nM] | Compound |
| --- | --- |
| 16.7 | COc1ccc([C@H]2C[C@@H]2COc2nc(C)ncc2-c2cn(C)c(=O)cn2)nc1 [Example 61, 5-(4-(((1S,2S)-2-(5-methoxypyridin-2-yl)cyclopropyl)methoxy)-2-methylpyrimidin-5-yl)-1-methylpyrazin-2(1H)-one] |
| 1.78 | CCn1c(C)c(-c2cnc(C)nc2OC[C@H]2C[C@@H]2c2ccc(OC)cn2)ccc1=O [Example 33, 1-ethyl-5-(4-(((1S,2S)-2-(5-methoxypyridin-2-yl)cyclopropyl)methoxy)-2-methylpyrimidin-5-yl)-6-methylpyridin-2(1H)-one] |
| 1.21 | COc1ccc([C@H]2C[C@@H]2COc2nc(C)ncc2-c2ccc(=O)n(C(F)F)c2)nc1 [Example 20, 1-(difluoromethyl)-5-(4-(((1S,2S)-2-(5-methoxypyridin-2-yl)cyclopropyl)methoxy)-2-methylpyrimidin-5-yl)pyridin-2(1H)-one] |
